Test results published in patent US20100204203A1, “Chemical Compounds 637: Pyridopyrimidinediones as PDE4 Inhibitors” (priority 2007, published 2010).
Counter-ions that a name gives are not always drawn.

Each compound was assayed against recombinant Human Phosphodiesterase B2 (PDE4B2) (Homo sapiens, UniProt Q07343) (assay: Human Phosphodiesterase B2 Radiometric Assay (yttrium silicate SPA beads, [3H]cyclic AMP)). Details: recombinant human PDE4B2, radiometric SPA assay, 8 nM [3H]cyclic AMP; read-out: PDE4B2 pIC50 (converted).
Sequence of recombinant Human Phosphodiesterase B2 (PDE4B2) (Q07343 1-564 isoform Q07343-2): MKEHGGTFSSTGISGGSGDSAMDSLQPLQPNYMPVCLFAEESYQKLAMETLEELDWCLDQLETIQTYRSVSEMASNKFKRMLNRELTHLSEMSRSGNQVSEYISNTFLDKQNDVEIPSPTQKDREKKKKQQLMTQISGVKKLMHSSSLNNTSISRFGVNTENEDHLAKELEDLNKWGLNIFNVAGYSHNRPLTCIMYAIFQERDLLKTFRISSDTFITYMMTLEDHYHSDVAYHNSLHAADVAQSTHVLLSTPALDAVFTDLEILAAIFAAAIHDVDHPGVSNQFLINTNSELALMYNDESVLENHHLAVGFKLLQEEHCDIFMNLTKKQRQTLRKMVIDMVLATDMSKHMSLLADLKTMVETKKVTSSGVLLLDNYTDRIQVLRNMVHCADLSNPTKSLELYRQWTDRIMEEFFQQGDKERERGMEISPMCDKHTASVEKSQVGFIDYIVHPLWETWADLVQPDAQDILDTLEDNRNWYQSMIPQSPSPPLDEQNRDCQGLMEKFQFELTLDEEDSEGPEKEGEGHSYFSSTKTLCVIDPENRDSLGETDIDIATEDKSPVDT
Assay type: biochemical
Outline: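 Read-out is scintillation proximity: yttrium silicate beads (with 18 mM ZnSO4, added to stop the reaction) bind 5′AMP formed from 8 nM [3H]cAMP over 20 min. Beforehand, compound and 0.1 mg/mL enzyme were preincubated 30 min at 30 °C in pH 7.5 HEPES buffer with MgCl2, EGTA and Brij 35; pIC50 values were curve-fitted.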

**Q.** For O=C(N[C@H]1CC[C@@H](n2c(=O)c3cc(F)cnc3n(-c3cccc(-c4ccc(CN5CCN(C6CCCC6)CC5)cc4)c3)c2=O)CC1)c1cn2c(n1)CCCC2 [Example 221, N-{cis-4-[1-{4′-[(4-cyclopentylpiperazin-1-yl)methyl]biphenyl-3-yl}-6-fluoro-2,4-dioxo-1,4-dihydropyrido[2,3-d]pyrimidin-3(2H)-yl]cyclohexyl}-5,6,7,8-tetrahydroimidazo[1,2-a]pyridine-2-carboxamide], which IC50 is on record?
**A.** 0.01 nM

**Q.** O=c1c2cc(F)cnc2n(-c2cccc(-c3ccc(O)cc3CN3CCOCC3)c2)c(=O)n1[C@H]1CC[C@@H](NCc2ncc3ccccn23)CC1 [Example 374, 6-fluoro-1-[4′-hydroxy-2′-(morpholin-4-ylmethyl)biphenyl-3-yl]-3-{cis-4-[(imidazo[1,5-a]pyridin-3-ylmethyl)amino]cyclohexyl}pyrido[2,3-d] pyrimidine-2,4(1H,3H)-dione] was tested. Which IC50 did it give?
**A.** 0.0631 nM

**Q.** Which IC50 does the source give for Cc1nc2ccccn2c1CN[C@H]1CC[C@@H](n2c(=O)c3cc(F)cnc3n(-c3cccc(-c4ccc(O)cc4CN4CCOCC4)c3)c2=O)CC1 [Example 370, 6-fluoro-1-[4′-hydroxy-2′-(morpholin-4-ylmethyl)biphenyl-3-yl]-3-(cis-4-{[(2-methylimidazo[1,2-a]pyridin-3-yl)methyl]amino}cyclohexyl)pyrido[2,3-d]pyrimidine-2,4(1H,3H)-dione] here?
**A.** 0.501 nM

**Q.** Cc1nc(C(=O)N[C@H]2CC[C@@H](n3c(=O)c4cc(F)cnc4n(-c4cccc(-c5ccc(CN6CCC(N7CCCCC7)CC6)cc5)c4)c3=O)CC2)cs1 [Example 357, N-{cis-4-[1-[4′-(1,4′-bipiperidin-1′-ylmethyl)biphenyl-3-yl]-6-fluoro-2,4-dioxo-1,4-dihydropyrido[2,3-d]pyrimidin-3(2H)-yl]cyclohexyl}-2-methyl-1,3-thiazole-4-carboxamide] was tested. Which IC50 did it give?
**A.** 0.0316 nM

**Q.** With Cc1cc(C(=O)N[C@H]2CC[C@@H](n3c(=O)c4cc(F)cnc4n(-c4cccc(-c5ccc(CN(C)C(C)(C)C)cc5)c4)c3=O)CC2)nn1C [Example 131, N-{cis-4-[1-(4′-{[tert-butyl(methyl)amino]methyl}biphenyl-3-yl)-6-fluoro-2,4-dioxo-1,4-dihydropyrido[2,3-d]pyrimidin-3(2H)-yl]cyclohexyl}-1,5-dimethyl-1H-pyrazole-3-carboxamide] as the compound, how does the IC50 read?
**A.** 0.126 nM

**Q.** For O=c1c2cc(F)cnc2n(-c2cccc(-c3ccc(O)cc3CN3CCOCC3)c2)c(=O)n1[C@H]1CC[C@@H](NCc2cccc(F)c2O)CC1 [Example 280, 6-fluoro-3-{cis-4-[(3-fluoro-2-hydroxybenzyl)amino]cyclohexyl}-1-[4′-hydroxy-2′-(morpholin-4-ylmethyl)biphenyl-3-yl]pyrido[2,3-d]pyrimidine-2,4(1H,3H)-dione], which IC50 is on record?
**A.** 0.794 nM

**Q.** How did the IC50 turn out when NC1(C(=O)N[C@H]2CC[C@@H](n3c(=O)c4cc(F)cnc4n(-c4cccc(-c5ccccc5CN5CCOCC5)c4)c3=O)CC2)CCCC1 [Example 70, 1-amino-N-{cis-4-[6-fluoro-1-[2′-(morpholin-4-ylmethyl)biphenyl-3-yl]-2,4-dioxo-1,4-dihydropyrido[2,3-d]pyrimidin-3(2H)-yl]cyclohexyl}cyclopentanecarboxamide trifluoroacetate salt] was run?
**A.** 2 nM

**Q.** For O=C(N[C@H]1CC[C@@H](n2c(=O)c3cc(F)cnc3n(-c3cccc(-c4ccc(CN5CCN(CCO)CC5)cc4)c3)c2=O)CC1)c1cn2c(n1)CCCC2 [Example 120, N-{cis-4-[6-fluoro-1-(4′-{[4-(2-hydroxyethyl)piperazin-1-yl]methyl}biphenyl-3-yl)-2,4-dioxo-1,4-dihydropyrido[2,3-d]pyrimidin-3(2H)-yl]cyclohexyl}-5,6,7,8-tetrahydroimidazo[1,2-a]pyridine-2-carboxamide], which IC50 is on record?
**A.** 0.0316 nM
